# Measurements published in patent US10472352B2, “Rac inhibitors” (Geneyus LLC, priority 2017, dated 2019).
# Where two headings read alike, the source gives them in different places.
# Test system: BT474 breast cancer cells
# Assay: BT474 Four (4) Day Cell Viability Assay
# Format: cell-based
# Conditions: BT474, 4 days; for viability at 2.5 µM / viability at 5 µM: Homo sapiens, BT-474, 96 h, read-out: cellular viability; for viability at 2.5 µM: 32661 2.5 μM; for viability at 5 µM: 32661 5 μM
# Description: BT474 breast cancer cells that are Estrogen Receptor Positive and HER2+ were grown in 5% cFBS. 5,000 cells were seeded into each well of a 96-well plate and treated with escalating doses of lapatinib, fulvestrant, and 32661.
# [1] = fulvestrant 0.0 nM, lapatinib 0.0 nM
# [2] = fulvestrant 0.0 nM, lapatinib 6.9 nM
# [3] = fulvestrant 0.0 nM, lapatinib 20.6 nM
# [4] = fulvestrant 0.0 nM, lapatinib 61.7 nM
# [5] = fulvestrant 0.0 nM, lapatinib 185.2 nM
# [6] = fulvestrant 0.0 nM, lapatinib 555.6 nM
# [7] = fulvestrant 0.0 nM, lapatinib 1666.7 nM
# [8] = fulvestrant 0.0 nM, lapatinib 3333.0 nM
# [9] = fulvestrant 6.9 nM, lapatinib 0.0 nM
# [10] = fulvestrant 6.9 nM, lapatinib 6.9 nM
# [11] = fulvestrant 6.9 nM, lapatinib 20.6 nM
# [12] = fulvestrant 6.9 nM, lapatinib 61.7 nM
# [13] = fulvestrant 6.9 nM, lapatinib 185.2 nM
# [14] = fulvestrant 6.9 nM, lapatinib 555.6 nM
# [15] = fulvestrant 6.9 nM, lapatinib 1666.7 nM
# [16] = fulvestrant 6.9 nM, lapatinib 3333.0 nM
# [17] = fulvestrant 20.6 nM, lapatinib 0.0 nM
# [18] = fulvestrant 20.6 nM, lapatinib 6.9 nM
# [19] = fulvestrant 20.6 nM, lapatinib 20.6 nM
# [20] = fulvestrant 20.6 nM, lapatinib 61.7 nM
# [21] = fulvestrant 20.6 nM, lapatinib 185.2 nM
# [22] = fulvestrant 20.6 nM, lapatinib 555.6 nM
# [23] = fulvestrant 20.6 nM, lapatinib 1666.7 nM
# [24] = fulvestrant 20.6 nM, lapatinib 3333.0 nM
# [25] = fulvestrant 61.7 nM, lapatinib 0.0 nM
# [26] = fulvestrant 61.7 nM, lapatinib 6.9 nM
# [27] = fulvestrant 61.7 nM, lapatinib 20.6 nM
# [28] = fulvestrant 61.7 nM, lapatinib 61.7 nM
# [29] = fulvestrant 61.7 nM, lapatinib 185.2 nM
# [30] = fulvestrant 61.7 nM, lapatinib 555.6 nM
# [31] = fulvestrant 61.7 nM, lapatinib 1666.7 nM
# [32] = fulvestrant 61.7 nM, lapatinib 3333.0 nM
# [33] = fulvestrant 185.2 nM, lapatinib 0.0 nM
# [34] = fulvestrant 185.2 nM, lapatinib 6.9 nM
# [35] = fulvestrant 185.2 nM, lapatinib 20.6 nM
# [36] = fulvestrant 185.2 nM, lapatinib 61.7 nM
# [37] = fulvestrant 185.2 nM, lapatinib 185.2 nM
# [38] = fulvestrant 185.2 nM, lapatinib 555.6 nM
# [39] = fulvestrant 185.2 nM, lapatinib 1666.7 nM
# [40] = fulvestrant 185.2 nM, lapatinib 3333.0 nM
# [41] = fulvestrant 555.6 nM, lapatinib 0.0 nM
# [42] = fulvestrant 555.6 nM, lapatinib 6.9 nM
# [43] = fulvestrant 555.6 nM, lapatinib 20.6 nM
# [44] = fulvestrant 555.6 nM, lapatinib 61.7 nM
# [45] = fulvestrant 555.6 nM, lapatinib 185.2 nM
# [46] = fulvestrant 555.6 nM, lapatinib 555.6 nM
# [47] = fulvestrant 555.6 nM, lapatinib 1666.7 nM
# [48] = fulvestrant 555.6 nM, lapatinib 3333.0 nM
# [49] = fulvestrant 1666.7 nM, lapatinib 0.0 nM
# [50] = fulvestrant 1666.7 nM, lapatinib 6.9 nM
# [51] = fulvestrant 1666.7 nM, lapatinib 20.6 nM
# [52] = fulvestrant 1666.7 nM, lapatinib 61.7 nM
# [53] = fulvestrant 1666.7 nM, lapatinib 185.2 nM
# [54] = fulvestrant 1666.7 nM, lapatinib 555.6 nM
# [55] = fulvestrant 1666.7 nM, lapatinib 1666.7 nM
# [56] = fulvestrant 1666.7 nM, lapatinib 3333.0 nM
# [57] = fulvestrant 3333.0 nM, lapatinib 0.0 nM
# [58] = fulvestrant 3333.0 nM, lapatinib 6.9 nM
# [59] = fulvestrant 3333.0 nM, lapatinib 20.6 nM
# [60] = fulvestrant 3333.0 nM, lapatinib 61.7 nM
# [61] = fulvestrant 3333.0 nM, lapatinib 185.2 nM
# [62] = fulvestrant 3333.0 nM, lapatinib 555.6 nM
# [63] = fulvestrant 3333.0 nM, lapatinib 1666.7 nM
structure (smiles),measurement,setting,value
"FC(F)(F)c1ccc2c(SCCCCCCn3cnc(CN4CCOCC4)c3)ccnc2c1 [Compound 0032661, 4-[[1-[6-[[7-(trifluoromethyl)-4-quinolyl]sulfanyl]hexyl]imidazol-4-yl]methyl]morpholine]","cellular viability, addition of 32661 to lapatinib and fulvestrant",,enhanced the reduction of cellular viability
same,"cellular viability, addition of 32661 to lapatinib and fulvestrant",listed as 32661,further enhanced the reduction of cellular viability
same,viability at 2.5 µM,[1],96%
same,viability at 2.5 µM,[2],85%
same,viability at 2.5 µM,[3],80%
same,viability at 2.5 µM,[4],81%
same,viability at 2.5 µM,[5],83%
same,viability at 2.5 µM,[6],73%
same,viability at 2.5 µM,[7],60%
same,viability at 2.5 µM,[8],23%
same,viability at 2.5 µM,[9],90%
same,viability at 2.5 µM,[10],83%
same,viability at 2.5 µM,[11],80%
same,viability at 2.5 µM,[12],80%
same,viability at 2.5 µM,[13],78%
same,viability at 2.5 µM,[14],66%
same,viability at 2.5 µM,[15],55%
same,viability at 2.5 µM,[16],25%
same,viability at 2.5 µM,[17],87%
same,viability at 2.5 µM,[18],77%
same,viability at 2.5 µM,[19],79%
same,viability at 2.5 µM,[20],79%
same,viability at 2.5 µM,[21],76%
same,viability at 2.5 µM,[22],63%
same,viability at 2.5 µM,[23],54%
same,viability at 2.5 µM,[24],25%
same,viability at 2.5 µM,[25],87%
same,viability at 2.5 µM,[26],78%
same,viability at 2.5 µM,[27],78%
same,viability at 2.5 µM,[28],78%
same,viability at 2.5 µM,[29],73%
same,viability at 2.5 µM,[30],63%
same,viability at 2.5 µM,[31],53%
same,viability at 2.5 µM,[32],21%
same,viability at 2.5 µM,[33],84%
same,viability at 2.5 µM,[34],81%
same,viability at 2.5 µM,[35],82%
same,viability at 2.5 µM,[36],77%
same,viability at 2.5 µM,[37],73%
same,viability at 2.5 µM,[38],63%
same,viability at 2.5 µM,[39],54%
same,viability at 2.5 µM,[40],18%
same,viability at 2.5 µM,[41],83%
same,viability at 2.5 µM,[42],78%
same,viability at 2.5 µM,[43],80%
same,viability at 2.5 µM,[44],79%
same,viability at 2.5 µM,[45],75%
same,viability at 2.5 µM,[46],62%
same,viability at 2.5 µM,[47],48%
same,viability at 2.5 µM,[48],14%
same,viability at 2.5 µM,[49],75%
same,viability at 2.5 µM,[50],72%
same,viability at 2.5 µM,[51],73%
same,viability at 2.5 µM,[52],72%
same,viability at 2.5 µM,[53],59%
same,viability at 2.5 µM,[54],47%
same,viability at 2.5 µM,[55],24%
same,viability at 2.5 µM,[56],7%
same,viability at 2.5 µM,[57],52%
same,viability at 2.5 µM,[58],42%
same,viability at 2.5 µM,[59],34%
same,viability at 2.5 µM,[60],30%
same,viability at 2.5 µM,[61],26%
same,viability at 2.5 µM,[62],22%
same,viability at 2.5 µM,[63],16%
same,viability at 2.5 µM,"fulvestrant 3333.0 nM, lapatinib 3333.0 nM",1%
same,viability at 5 µM,[1],95%
same,viability at 5 µM,[2],87%
same,viability at 5 µM,[3],84%
same,viability at 5 µM,[4],87%
same,viability at 5 µM,[5],79%
same,viability at 5 µM,[6],67%
same,viability at 5 µM,[7],51%
same,viability at 5 µM,[8],16%
same,viability at 5 µM,[9],93%
same,viability at 5 µM,[10],83%
same,viability at 5 µM,[11],82%
same,viability at 5 µM,[12],82%
same,viability at 5 µM,[13],77%
same,viability at 5 µM,[14],65%
same,viability at 5 µM,[15],42%
same,viability at 5 µM,[16],14%
same,viability at 5 µM,[17],91%
same,viability at 5 µM,[18],80%
same,viability at 5 µM,[19],79%
same,viability at 5 µM,[20],78%
same,viability at 5 µM,[21],71%
same,viability at 5 µM,[22],60%
same,viability at 5 µM,[23],39%
same,viability at 5 µM,[24],11%
same,viability at 5 µM,[25],90%
same,viability at 5 µM,[26],80%
same,viability at 5 µM,[27],78%
same,viability at 5 µM,[28],76%
same,viability at 5 µM,[29],67%
same,viability at 5 µM,[30],60%
same,viability at 5 µM,[31],39%
same,viability at 5 µM,[32],11%
same,viability at 5 µM,[33],90%
same,viability at 5 µM,[34],78%
same,viability at 5 µM,[35],78%
same,viability at 5 µM,[36],76%
same,viability at 5 µM,[37],67%
same,viability at 5 µM,[38],56%
same,viability at 5 µM,[39],35%
same,viability at 5 µM,[40],10%
same,viability at 5 µM,[41],86%
same,viability at 5 µM,[42],79%
same,viability at 5 µM,[43],74%
same,viability at 5 µM,[44],72%
same,viability at 5 µM,[45],56%
same,viability at 5 µM,[46],48%
same,viability at 5 µM,[47],29%
same,viability at 5 µM,[48],6%
same,viability at 5 µM,[49],81%
same,viability at 5 µM,[50],60%
same,viability at 5 µM,[51],60%
same,viability at 5 µM,[52],48%
same,viability at 5 µM,[53],36%
same,viability at 5 µM,[54],29%
same,viability at 5 µM,[55],18%
same,viability at 5 µM,[56],1%
same,viability at 5 µM,[57],56%
same,viability at 5 µM,[58],35%
same,viability at 5 µM,[59],29%
same,viability at 5 µM,[60],21%
same,viability at 5 µM,[61],22%
same,viability at 5 µM,[62],19%
same,viability at 5 µM,[63],11%
